Values after ≈ are worked out from the molar mass of the structure shown. Read-outs that look alike come from different tables or passages of the source. Residues, ends and D or L forms follow the SMILES beside them.
Tests used:
Cryptococcus neoformans = test: microbe, parasite or virus in culture; format: cell-based; conditions: 72 h, read-out: Minimum inhibitory concentration (MIC)
Method: (§1) The anti- fungal activity of peptides was performed according to the standard micro broth dilution technique as per NCCLS guidelines. These plates were incubated in a moist chamber at 35 °C, and an absorbance at 492 nm was recorded on a VersaMax microplate reader after 48 h for C. albicans ATCC 10231 and C. parapsilosis ATCC 22019 and 72 h for C. neoformans.

[1] = tested on: Candida parapsilosis (ATCC 22019); test: microbe, parasite or virus in culture; format: cell-based; conditions: read-out: Minimum inhibitory concentration (MIC)
Method: as §1

[2] = tested on: Candida albicans (ATCC 10231); test: microbe, parasite or virus in culture; format: cell-based; conditions: read-out: Minimum inhibitory concentration (MIC)
Method: as §1

[3] = tested on: Sporothrix schenckii (Patient isolates); test: microbe, parasite or virus in culture; format: cell-based; conditions: read-out: Minimum inhibitory concentration (MIC)
[4] = tested on: Staphylococcus aureus (ATCC 33592) Methicillin resistant Genatmicin resistant; test: microbe, parasite or virus in culture; format: cell-based; conditions: read-out: Minimum inhibitory concentration (MIC)
Method: (§2) Antibacterial assay against various Gram-positive and Gram-negative strains of bacteria was performed by the serial two-fold dilution method according to the previously reported procedure, [36]. The antibacterial assays were repeated thrice and the averages of these MIC values were reported.

[5] = tested on: Staphylococcus aureus (ATCC 700698 MRSA); test: microbe, parasite or virus in culture; format: cell-based; conditions: read-out: Minimum inhibitory concentration (MIC)
Method: as §2

[6] = tested on: Escherichia coli (ATCC 25922); test: microbe, parasite or virus in culture; format: cell-based; conditions: read-out: Minimum inhibitory concentration (MIC)
Method: as §2

[7] = tested on: Staphylococcus aureus (ATCC 29213); test: microbe, parasite or virus in culture; format: cell-based; conditions: read-out: Minimum inhibitory concentration (MIC)
Method: as §2

[8] = tested on: Pseudomonas aeruginosa (ATCC BAA-427); test: microbe, parasite or virus in culture; format: cell-based; conditions: read-out: Minimum inhibitory concentration (MIC)
Method: as §2

[9] = tested on: Staphylococcus aureus (ATCC 700699 MRSA); test: microbe, parasite or virus in culture; format: cell-based; conditions: read-out: Minimum inhibitory concentration (MIC)
Method: as §2

[10] = tested on: Bacillus subtilis (ATCC 6633); test: microbe, parasite or virus in culture; format: cell-based; conditions: read-out: Minimum inhibitory concentration (MIC)
Method: as §2

[11] = tested on: Staphylococcus aureus (BAA-44)MDR; test: microbe, parasite or virus in culture; format: cell-based; conditions: BAA44; Staphylococcus aureus (BAA-44) MDR; averages of three repeats; read-out: Minimum inhibitory concentration (MIC)
Method: as §2

[12] = tested on: Escherichia coli (ATCC 9637); test: microbe, parasite or virus in culture; format: cell-based; conditions: read-out: Minimum inhibitory concentration (MIC)
Method: as §2

[13] = tested on: Staphylococcus aureus (ATCC 25923); test: microbe, parasite or virus in culture; format: cell-based; conditions: read-out: Minimum inhibitory concentration (MIC)
Method: as §2

[14] = tested on: Klebsiella pneumoniae (ATCC 27736); test: microbe, parasite or virus in culture; format: cell-based; conditions: read-out: Minimum inhibitory concentration (MIC)
Method: as §2

E. coli ATCC 25922 [15] = test: Synergy with conventional antibiotics, checkerboard titration; format: cell-based, Escherichia coli
Method: The checkerboard titration method was followed to check the synergy of peptides with other antibiotics. First, 2-fold serial dilutions of the antibiotics and antimicrobial peptides were prepared. Subsequently, 50 μl each of different concentrations of antibiotics and of antimicrobial peptides was mixed and added into 100 μl of log phase bacteria culture in a 96-well plate. The plates were then incubated at 37 °C for 24 h. The fractional inhibitory concentration (FIC) index (FICI) was calculated as follows[39]: FICI=(MICofdrugAincombination)/(MICofdrugAalone)+(MICofdrugBincombination)/(MICofdrugB): FICI < 0.5 is considered to indicate synergy; 0.5 < FICI < 1.0 is considered additive; 1.0 < FICI < 4.0 is considered indifferent; and FICI > 4.0 is considered antagonism.

E. coli ATCC 25922 [16] = format: cell-based, Escherichia coli; conditions: ATCC 25922, 18 h
Method: (§3) E. coli ATCC25922 was grown to 10^6 CFU/ml in fresh MH broth with various divalent and monovalent salts at their physiological concentrations. Serial dilutions of chrysophsin-1 and its variants prepared with the same MH broth were added to the E. coli ATCC 25922 suspensions. The bacteria were incubated at 37 °C in a shaking incubator for 18 h and the MIC values of individual peptides against E. coli ATCC 25922 were determined. Thermal tolerance of Chrysophsin-1 and its variants was checked by incubating the peptides at 4 °C, 60 °C and 90 °C for 1 h prior to MIC determination. The antibacterial activity in presence of serum was carried out by adding a final concentration of 10% fetal bovine serum in the assay diluents containing 0.4% BSA, 0.02% glacial acetic acid. The subsequent steps in both the experiments were consistent with the MIC determination method.

E. coli (ATCC 25922) = format: cell-based, Escherichia coli; conditions: ATCC 25922, 1 h
Method: as §3

S. aureus (ATCC 25923) = format: cell-based, Staphylococcus aureus; conditions: ATCC 25923, 1 h
Method: as §3

[17] = ATCC33592, Staphylococcus aureus (ATCC 33592), methicillin and gentamicin resistant, averages of three repeats
[18] = Staphylococcus aureus (ATCC 700698 MRSA), averages of three repeats
[19] = ATCC25922, Escherichia coli (ATCC 25922), averages of three repeats
[20] = ATCC29213, Staphylococcus aureus (ATCC 29213), averages of three repeats
[21] = ATCCBAA427, Pseudomonas aeruginosa (ATCC BAA-427), averages of three repeats
[22] = Staphylococcus aureus (ATCC 700699 MRSA), averages of three repeats
[23] = ATCC6633, Bacillus subtilis (ATCC 6633), averages of three repeats
[24] = ATCC9637, Escherichia coli (ATCC 9637), averages of three repeats
[25] = ATCC25923, Staphylococcus aureus (ATCC 25923), averages of three repeats
[26] = ATCC27736, Klebsiella pneumoniae (ATCC 27736), averages of three repeats

## OC(Cn1cncn1)(Cn1cncn1)c1ccc(F)cc1F [Fluconazole, reference compound]
Cryptococcus neoformans; Cryptococcus neoformans, NCCLS micro broth dilution, 35 °C, absorbance 492 nm
  MIC: 6.53 µM (≈ 2 µg/mL)
[1]; ATCC22019, Candida parapsilosis (ATCC 22019), NCCLS micro broth dilution, 35 °C, 48 h, absorbance 492 nm
  MIC: 6.53 µM (≈ 2 µg/mL)
[2]; ATCC10231, Candida albicans (ATCC 10231), NCCLS micro broth dilution, 35 °C, 48 h, absorbance 492 nm
  MIC: 3.26 µM (≈ 0.998 µg/mL)
[3]; Sporothrix schenckii (patient isolates), NCCLS micro broth dilution, 35 °C
  MIC: 6.53 µM (≈ 2 µg/mL)

## CNC(C)C1CCC(N)C(OC2C(N)CC(N)C(OC3OCC(C)(O)C(NC)C3O)C2O)O1 (centres unmarked) [Gentamicin, reference compound]
[4]; [17]
  MIC: > 86.8 µM
[5]; [18]
  MIC: > 86.8 µM
[6]; [19]
  MIC: 2.5 µM (≈ 1.19 µg/mL)
[7]; [20]
  MIC: 1.35 µM (≈ 0.645 µg/mL)
[8]; [21]
  MIC: 1.35 µM (≈ 0.645 µg/mL)
[9]; [22]
  MIC: > 86.8 µM
[10]; [23]
  MIC: 1.2 µM (≈ 0.573 µg/mL)
[11]
  MIC: > 86.8 µM
[12]; [24]
  MIC: 5 µM (≈ 2.39 µg/mL)
[13]; [25]
  MIC: 0.67 µM (≈ 0.32 µg/mL)
[14]; [26]
  MIC: 1.35 µM (≈ 0.645 µg/mL)

## CCn1cc(C(=O)O)c(=O)c2cc(F)c(N3CCNCC3)cc21 [Norfloxacin, reference compound]
[4]; [17]
  MIC: 1.22 µM (≈ 0.39 µg/mL)
[5]; [18]
  MIC: > 156 µM
[6]; [19]
  MIC: 0.3 µM (≈ 0.0958 µg/mL)
[7]; [20]
  MIC: 2.44 µM (≈ 0.779 µg/mL)
[8]; [21]
  MIC: 1.22 µM (≈ 0.39 µg/mL)
[9]; [22]
  MIC: > 156 µM
[10]; [23]
  MIC: 1.2 µM (≈ 0.383 µg/mL)
[11]
  MIC: 39.1 µM (≈ 12.5 µg/mL)
[12]; [24]
  MIC: 0.15 µM (≈ 0.0479 µg/mL)
[13]; [25]
  MIC: 1.22 µM (≈ 0.39 µg/mL)
[14]; [26]
  MIC: 0.15 µM (≈ 0.0479 µg/mL)

## CC[C@H](C)[C@H](NC(=O)[C@H](C)NC(=O)CNC(=O)[C@H](CCCCN)NC(=O)[C@@H](NC(=O)[C@H](CC(C)C)NC(=O)[C@H](Cc1c[nH]c2ccccc12)NC(=O)CNC(=O)[C@H](Cc1ccccc1)NC(=O)[C@@H](N)Cc1ccccc1)[C@@H](C)CC)C(=O)N[C@@H](Cc1c[nH]cn1)C(=O)N[C@@H](C)C(=O)NCC(=O)N[C@@H](CCCCN)C(=O)N[C@@H](C)C(=O)N[C@H](C(=O)N[C@@H](Cc1c[nH]cn1)C(=O)N1CCC[C@H]1C(=O)N[C@@H](CC(C)C)C(=O)N[C@H](C(=O)N[C@@H](Cc1c[nH]cn1)C(=O)N[C@@H](CCCNC(=N)N)C(=O)N[C@@H](CCCNC(=N)N)C(=O)N[C@@H](CCCNC(=N)N)C(=O)N[C@@H](Cc1c[nH]cn1)C(N)=O)[C@@H](C)CC)[C@@H](C)CC [Peptide G18P-Chr-1] (H-FFGWLIKGAIHAGKAIHPLIHRRRH-NH2)
[4]; ATCC 33592
  MIC: 1.6 µM (≈ 4.69 µg/mL)
[5]; ATCC 700698
  MIC: 3 µM (≈ 8.79 µg/mL)
[6]; ATCC 25922
  MIC: 3 µM (≈ 8.79 µg/mL)
[7]; ATCC 29213
  MIC: 6.8 µM (≈ 19.9 µg/mL)
[8]; ATCC BAA-427
  MIC: 6.8 µM (≈ 19.9 µg/mL)
[9]; ATCC 700699
  MIC: 3 µM (≈ 8.79 µg/mL)
[10]; ATCC 6633
  MIC: 3 µM (≈ 8.79 µg/mL)
[12]; ATCC 9637
  MIC: 3 µM (≈ 8.79 µg/mL)
[13]; ATCC 25923
  MIC: 3 µM (≈ 8.79 µg/mL)
[14]; ATCC 27736
  MIC: 13.6 µM (≈ 39.9 µg/mL)
Cryptococcus neoformans
  MIC: 13.6 µM (≈ 39.9 µg/mL)
[1]; ATCC 22019, 48 h
  MIC: 13.6 µM (≈ 39.9 µg/mL)
[2]; ATCC 10231, 48 h
  MIC: 13.6 µM (≈ 39.9 µg/mL)
[3]; 48 h
  MIC: 27.2 µM (≈ 79.7 µg/mL)
E. coli ATCC 25922 [15]
  interaction of peptide with chloramphenicol (by FICI): additivity
E. coli ATCC 25922 [16]
  Antibacterial activity (MIC) in the presence of 10% FBS: 17.2 µM
  Antibacterial activity (MIC) in the presence of FeCl3: 4.1 µM
  Antibacterial activity (MIC) in the presence of KCl: 4.3 µM
  Antibacterial activity (MIC) in the presence of MgCl2: 8.6 µM
  Antibacterial activity (MIC) in the presence of NH4Cl: 4.3 µM
  Antibacterial activity (MIC) in the presence of NaCl: 4.3 µM
E. coli (ATCC 25922)
  Antibacterial activity (MIC) after incubating peptide at 4 °C: 3 µM
  Antibacterial activity (MIC) after incubating peptide at 60 °C: 8.3 µM
  Antibacterial activity (MIC) after incubating peptide at 90 °C: 17.2 µM
S. aureus (ATCC 25923)
  Antibacterial activity (MIC) after incubating peptide at 4 °C: 3 µM
  Antibacterial activity (MIC) after incubating peptide at 60 °C: 33 µM
  Antibacterial activity (MIC) after incubating peptide at 90 °C: 33 µM

— PMC5469811, “Identification of GXXXXG motif in Chrysophsin-1 and its implication in the design of analogs with cell-selective antimicrobial and anti-endotoxin activities” (Scientific Reports, 2017)
